{
  "source": "patent US9346812B2",
  "about": "“Substituted pyrrolopyrimidine compounds, compositions thereof, and methods of treatment therewith” (Signal Pharmaceutical LLC, priority 2013, dated 2016)",
  "data": [
    {"tested_on": "CAL51 cell proliferation", "assay": "Cell Titer Glo Proliferation Assay (CAL51)", "assay_type": "cell-based, human", "details": "Homo sapiens, CAL-51; CAL51 cell proliferation, 72 h, Cell Titer Glo luminescence; read-out: Act. Level", "summary_of_the_method": "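CAL51 triple-negative breast cancer cells in DMEM or RPMI with 10% FBS were treated after overnight culture with serially diluted compound at 0.2% final DMSO. After 72 h, viability was read as CellTiter-Glo luminescence.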", "units": {"IC50": "nM"}, "values": [
      {"smiles": "COc1cc(C(=O)NC2CC(O)C2)ccc1Nc1nc(OC2CCCC2)c2c(-c3ccc4nc(C)oc4c3)c[nH]c2n1", "note": "(stereo not drawn) [Example 238, 4-(4-(cyclopentyloxy)-5-(2-methylbenzo[d]oxazol-6-yl)-7H-pyrrolo[2,3-d]pyrimidin-2-ylamino)-N-((1s,3s)-3-hydroxycyclobutyl)-3-methoxybenzamide]", "IC50": "< 100"},
      {"smiles": "CC[C@H](C)Oc1nc(Nc2ccc(C(=O)NC)cc2OC)nc2[nH]cc(-c3ccc4nc(C)oc4c3)c12", "note": "[Example 204, (S)-4-(4-sec-butoxy-5-(2-methylbenzo[d]oxazol-6-yl)-7H-pyrrolo[2,3-d]pyrimidin-2-ylamino)-3-methoxy-N-methylbenzamide]", "IC50": "100 to 400"},
      {"smiles": "CNC(=O)c1ccc(Nc2nc(OC(C)C)c3c(-c4ccnc(C)c4)c[nH]c3n2)c(OC)c1", "note": "[Example 201, 4-(4-isopropoxy-5-(2-methyl-pyridin-4-yl)-7H-pyrrolo[2,3-d]pyrimidin-2-ylamino)-3-methoxy-N-methylbenzamide]", "IC50": "< 100"},
      {"smiles": "Cc1nc2ccc(-c3c[nH]c4nc(Nc5nn(C)cc5C)nc(OC5CCCC5)c34)cc2o1", "note": "[Example 297, 4-(cyclopentyloxy)-N-(1,4-dimethyl-1H-pyrazol-3-yl)-5-(2-methylbenzo[d]oxazol-6-yl)-7H-pyrrolo[2,3-d]pyrimidin-2-amine]", "IC50": "1000 to 10000"},
      {"smiles": "CNC(=O)c1ccc(Nc2nc(OC3CCCC3)c3c(-c4ccc(-c5ccn[nH]5)cc4)c[nH]c3n2)c(OC)c1", "note": "[Example 41, 4-(5-(4-(1H-pyrazol-5-yl)phenyl)-4-(cyclopentyloxy)-7H-pyrrolo[2,3-d]pyrimidin-2-ylamino)-3-methoxy-N-methylbenzamide]", "IC50": "100 to 400"},
      {"smiles": "CNC(=O)c1ccc(Nc2nc(O[C@H]3CC[C@](C)(O)CC3)c3c(-c4ccc5nc(C)oc5c4)c[nH]c3n2)c(C)c1", "note": "[Example 150, 4-(4-((1r,4r)-4-hydroxy-4-methylcyclohexyloxy)-5-(2-methylbenzo[d]oxazol-6-yl)-7H-pyrrolo[2,3-d]pyrimidin-2-ylamino)-N,3-dimethylbenzamide]", "IC50": "< 100"},
      {"smiles": "COc1cc(C(=O)N(C)C)ccc1Nc1nc(OC2CCCC2)c2c(-c3ccc4nc(C)oc4c3)c[nH]c2n1", "note": "[Example 91, 4-(4-(cyclopentyloxy)-5-(2-methylbenzo[d]oxazol-6-yl)-7H-pyrrolo[2,3-d]pyrimidin-2-ylamino)-3-methoxy-N,N-dimethylbenzamide]", "IC50": "100 to 400"},
      {"smiles": "CC[C@@H](C)Oc1nc(Nc2ccc(C(=O)NC)cc2OC)nc2[nH]cc(-c3ccc4nc(C)oc4c3)c12", "note": "[Example 203, (R)-4-(4-sec-butoxy-5-(2-methylbenzo[d]oxazol-6-yl)-7H-pyrrolo[2,3-d]pyrimidin-2-ylamino)-3-methoxy-N-methylbenzamide]", "IC50": "100 to 400"},
      {"smiles": "CNC(=O)c1ccc(Nc2nc(OC3CCOCC3)c3c(-c4ccc5nc(C)oc5c4)c[nH]c3n2)c(OC(F)(F)F)c1", "note": "[Example 192, N-methyl-4-(5-(2-methylbenzo[d]oxazol-6-yl)-4-(tetrahydro-2H-pyran-4-yloxy)-7H-pyrrolo[2,3-d]pyrimidin-2-ylamino)-3-(trifluoromethoxy)benzamide]", "IC50": "100 to 400"},
      {"smiles": "CNC(=O)c1ccc(Nc2nc(OC3COC3)c3c(-c4ccc5nc(C)oc5c4)c[nH]c3n2)c(OC)c1", "note": "[Example 179, 3-methoxy-N-methyl-4-(5-(2-methylbenzo[d]oxazol-6-yl)-4-(oxetan-3-yloxy)-7H-pyrrolo[2,3-d]pyrimidin-2-ylamino)benzamide]", "IC50": "< 100"},
      {"smiles": "CNC(=O)c1ccc(Nc2nc(OC3CCOCC3)c3c(-c4ccnc(NC)c4)c[nH]c3n2)c(OC)c1", "note": "[Example 155, 3-methoxy-N-methyl-4-(5-(2-(methylamino)pyridin-4-yl)-4-(tetrahydro-2H-pyran-4-yloxy)-7H-pyrrolo[2,3-d]pyrimidin-2-ylamino)benzamide]", "IC50": "< 100"},
      {"smiles": "Cc1nc2ccc(-c3c[nH]c4nc(Nc5ccc(C(=O)N(C)C)cc5C)nc(O[C@H]5CCCOC5)c34)cc2o1", "note": "[Example 104, (S)-N,N,3-trimethyl-4-(5-(2-methylbenzo[d]oxazol-6-yl)-4-(tetrahydro-2H-pyran-3-yloxy)-7H-pyrrolo[2,3-d]pyrimidin-2-ylamino)benzamide]", "IC50": "< 100"},
      {"smiles": "COc1cc(C(=O)N(C)C2CCOCC2)ccc1Nc1nc(OC2CCCC2)c2c(-c3ccc4nc(C)oc4c3)c[nH]c2n1", "note": "[Example 250, 4-(4-(cyclopentyloxy)-5-(2-methylbenzo[d]oxazol-6-yl)-7H-pyrrolo[2,3-d]pyrimidin-2-ylamino)-3-methoxy-N-methyl-N-(tetrahydro-2H-pyran-4-yl)benzamide]", "IC50": "100 to 400"},
      {"smiles": "CNC(=O)c1ccc(Nc2nc(OC3CCCC3)c3c(-c4cncc(OC)c4)c[nH]c3n2)c(Cl)c1", "note": "[Example 34, 3-chloro-4-(4-(cyclopentyloxy)-5-(5-methoxypyridin-3-yl)-7H-pyrrolo [2,3-d]pyrimidin-2-ylamino)-N-methylbenzamide]", "IC50": "100 to 400"},
      {"smiles": "COc1cc(C(=O)NC2CCCC2)ccc1Nc1nc(OC2CCCC2)c2c(-c3ccc4nc(C)oc4c3)c[nH]c2n1", "note": "[Example 229, N-cyclopentyl-4-(4-(cyclopentyl-oxy)-5-(2-methylbenzo[d]oxazol-6-yl)-7H-pyrrolo[2,3-d]pyrimidin-2-ylamino)-3-methoxybenzamide]", "IC50": "400 to 1000"},
      {"smiles": "Cc1cc(C(=O)N(C)C)ccc1Nc1nc(O[C@H]2CCOC2)c2c(-c3ccncc3)c[nH]c2n1", "note": "[Example 176, (S)-N,N,3-trimethyl-4-(5-(pyridin-4-yl)-4-(tetrahydrofuran-3-yloxy)-7H-pyrrolo[2,3-d]pyrimidin-2-ylamino)benzamide]", "IC50": "100 to 400"},
      {"smiles": "CNC(=O)c1ccc(Nc2nc(OC3CCCC3)c3c(-c4ccc(C(=N)N)cc4)c[nH]c3n2)c(OC)c1", "note": "[Example 245, 4-(5-(4-carbamimidoylphenyl)-4-(cyclopentyloxy)-7H-pyrrolo[2,3-d]pyrimidin-2-ylamino)-3-methoxy-N-methylbenzamide]", "IC50": "1000 to 10000"},
      {"smiles": "COc1cc(CN)ccc1Nc1nc(OC2CCCC2)c2c(-c3ccc(O)cc3)c[nH]c2n1", "note": "[Example 52, 4-(2-(4-(aminomethyl)-2-methoxyphenylamino)-4-(cyclopentyloxy)-7H-pyrrolo[2,3-d]pyrimidin-5-yl)phenol]", "IC50": "100 to 400"},
      {"smiles": "CNC(=O)c1ccc(-c2c[nH]c3nc(Nc4ccc(C(=O)NC)cc4OC)nc(O[C@H]4CCOC4)c23)cc1", "note": "[Example 182, (S)-3-methoxy-N-methyl-4-(5-(4-(methylcarbamoyl)phenyl)-4-(tetrahydrofuran-3-yloxy)-7H-pyrrolo[2,3-d]pyrimidin-2-ylamino)benzamide]", "IC50": "< 100"},
      {"smiles": "CCOc1ccc(-c2c[nH]c3nc(Nc4ccc(C(=O)NC)cc4OC)nc(O[C@H]4CCOC4)c23)cn1", "note": "[Example 161, (S)-4-(5-(6-ethoxypyridin-3-yl)-4-(tetrahydrofuran-3-yloxy)-7H-pyrrolo[2,3-d]pyrimidin-2-ylamino)-3-methoxy-N-methylbenzamide]", "IC50": "100 to 400"},
      {"smiles": "CNC(=O)c1ccc(Nc2nc(OCCO)c3c(-c4ccc5nc(C)oc5c4)c[nH]c3n2)c(OC)c1", "note": "[Example 168, 4-(4-(2-hydroxyethoxy)-5-(2-methylbenzo[d]oxazol-6-yl)-7H-pyrrolo[2,3-d]pyrimidin-2-ylamino)-3-methoxy-N-methylbenzamide]", "IC50": "< 100"},
      {"smiles": "COc1cc(C(=O)N2CCC(F)(F)CC2)ccc1Nc1nc(OC2CCCC2)c2c(-c3ccc4nc(C)oc4c3)c[nH]c2n1", "note": "[Example 289, (4-(4-(cyclopentyloxy)-5-(2-methylbenzo[d]oxazol-6-yl)-7H-pyrrolo[2,3-d]pyrimidin-2-ylamino)-3-methoxyphenyl)(4,4-difluoropiperidin-1-yl)methanone]", "IC50": "100 to 400"},
      {"smiles": "COc1cc(C(=O)N[C@@H]2CCC[C@@H]2O)ccc1Nc1nc(OC2CCCC2)c2c(-c3ccc4nc(C)oc4c3)c[nH]c2n1", "note": "[Example 253, 4-(4-(cyclopentyloxy)-5-(2-methylbenzo[d]oxazol-6-yl)-7H-pyrrolo[2,3-d]pyrimidin-2-ylamino)-N-((1R,2S)-2-hydroxycyclopentyl)-3-methoxybenzamide]", "IC50": "100 to 400"},
      {"smiles": "CNC(=O)c1ccc(Nc2nc(OC)c3c(-c4ccc(-c5ncc[nH]5)cc4)c[nH]c3n2)c(OC)c1", "note": "[Example 141, 4-(5-(4-(1H-imidazol-2-yl)phenyl)-4-methoxy-7H-pyrrolo[2,3-d]pyrimidin-2-ylamino)-3-methoxy-N-methylbenzamide]", "IC50": "100 to 400"},
      {"smiles": "CNC(=O)c1ccc(Nc2nc(OC3CCCC3)c3c(-c4ccc(OC)cc4)c[nH]c3n2)c(OC)c1", "note": "[Example 76, 4-(4-(cyclopentyloxy)-5-(4-methoxyphenyl)-7H-pyrrolo[2,3-d]pyrimidin-2-ylamino)-3-methoxy-N-methylbenzamide]", "IC50": "< 100"},
      {"smiles": "CNC(=O)c1ccc(Nc2nc(OC3CCCC3)c3c(-c4ccc(N)cc4)c[nH]c3n2)c(OC)c1", "note": "[Example 37, 4-(5-(4-aminophenyl)-4-(cyclopentyloxy)-7H-pyrrolo[2,3-d]pyrimidin-2-ylamino)-3-methoxy-N-methylbenzamide]", "IC50": "< 100"},
      {"smiles": "COc1cc(C(=O)N[C@@H]2CCC[C@H]2O)ccc1Nc1nc(OC2CCCC2)c2c(-c3ccc4nc(C)oc4c3)c[nH]c2n1", "note": "[Example 266, 4-(4-(cyclopentyloxy)-5-(2-methylbenzo[d]oxazol-6-yl)-7H-pyrrolo[2,3-d]pyrimidin-2-ylamino)-N-((1R,2R)-2-hydroxycyclopentyl)-3-methoxybenzamide]", "IC50": "100 to 400"},
      {"smiles": "CNC(=O)c1ccc(Nc2nc(OC(C)C)c3c(-c4cnn(C)c4)c[nH]c3n2)c(OC)c1", "note": "[Example 189, 4-(4-isopropoxy-5-(1-methyl-1H-pyrazol-4-yl)-7H-pyrrolo[2,3-d]pyrimidin-2-ylamino)-3-methoxy-N-methylbenzamide]", "IC50": "< 100"},
      {"smiles": "COCCN(C)C(=O)c1ccc(Nc2nc(OC3CCCC3)c3c(-c4ccc5nc(C)oc5c4)c[nH]c3n2)c(OC)c1", "note": "[Example 284, 4-(4-(cyclopentyloxy)-5-(2-methylbenzo[d]oxazol-6-yl)-7H-pyrrolo[2,3-d]pyrimidin-2-ylamino)-3-methoxy-N-(2-methoxyethyl)-N-methylbenzamide]", "IC50": "< 100"},
      {"smiles": "CNC(=O)c1ccc(Nc2nc(OC3CCCC3)c3c(-c4ccc(OC)c(F)c4)c[nH]c3n2)c(OC)c1", "note": "[Example 54, 4-(4-(cyclopentyloxy)-5-(3-fluoro-4-methoxyphenyl)-7H-pyrrolo[2,3-d]pyrimidin-2-ylamino)-3-methoxy-N-methylbenzamide]", "IC50": "100 to 400"}
    ]}
  ]
}
